Values quoted from earlier work, collected in patent US20100022576A1 (priority 2006, published 2010).

Legend:
human mast cells = details: in vitro
[1] = in vivo

Compound: Clc1ccc2c(c1)CCc1cccnc1C2=C1CCNCC1 [desloratadine]
- Release of histamine from human mast cells (human mast cells): inhibits release of histamine from human mast cells
- Effect of food and grapefruit juice on bioavailability [1]: Neither food nor grapefruit juice has an effect
